Measured values taken from patent US20070259948A1, “Compounds with antifungal properties and process thereof” (priority 2006, published 2007).
Converted amounts (≈) assume the structure as drawn.

What was measured:
Test in all cases: Antifungal susceptibility testing (minimum inhibitory concentration), soyabean casein digest broth
Type in all cases: cell-based
A. niger = conditions: Aspergillus niger; end points after 48 hours, visually / spectrophotometer; NI till x = no inhibition up to x; read-out: Activity against organisms In μg/ml, A. niger (minimum inhibitory concentration)
Experimental: (§1) In vitro evaluation of antifungal activity can be performed by determining the minimum inhibitory concentration. Anti-fungal susceptibility testing of these anti-fungal compounds was done by conventional method using soyabean casein digest broth. Known anti-fungal agents like Fluconazole and amphotericin-B were used as positive control. End points were determined after 48 hours visually and by using Spectrophotometer wherever necessary. Different dilutions were tried and the set of experiments.

C. albicans = conditions: Candida albicans; end points after 48 hours, visually / spectrophotometer; NI till x = no inhibition up to x; read-out: Activity against organisms In μg/ml, C. albicans (minimum inhibitory concentration)
Experimental: as §1

F. proliferatum = conditions: Fusarium proliferatum; end points after 48 hours, visually / spectrophotometer; NI till x = no inhibition up to x; read-out: Activity against organisms In μg/ml, F. proliferatum (minimum inhibitory concentration)
Experimental: as §1

MIC (A. niger): > 4 µg/mL
MIC (C. albicans): 4 to 8 µg/mL (≈ 7.05 to 14.1 µM)
MIC (F. proliferatum): > 4 µg/mL
SMILES: COc1ccc(C2=CC(COC(=O)c3cc(Br)c(Br)s3)OC2=O)cc1Br (stereo not drawn) [FE, 4-(3-bromo-4-methoxyphenyl)-5-oxo-2,5-dihydrofuran-2-ylmethyl 4,5-dibromothiophene-2-carboxylate]
